Test results reported in patent publication US7838556B2 (priority 2006, dated 2010).
Structures can show the parent of a compound that is named as a salt. Where two headings read alike, the source gives them in different places.

Assays:
[1] = target: Calcium Channel, Type L (Dihydropyridine Site); settings: cited from earlier work
[2] = target: Muscarinic, Non-selective, Central; format: binding
[3] = target: Muscarinic, Non-selective, Peripheral; format: binding
[4] = test system: GABAA receptors; format: binding, rat
[5] = target: T1, GABAB receptors (Rattus norvegicus, UniProt Q9Z0U4); format: binding
T1 sequence (O88871 41-940): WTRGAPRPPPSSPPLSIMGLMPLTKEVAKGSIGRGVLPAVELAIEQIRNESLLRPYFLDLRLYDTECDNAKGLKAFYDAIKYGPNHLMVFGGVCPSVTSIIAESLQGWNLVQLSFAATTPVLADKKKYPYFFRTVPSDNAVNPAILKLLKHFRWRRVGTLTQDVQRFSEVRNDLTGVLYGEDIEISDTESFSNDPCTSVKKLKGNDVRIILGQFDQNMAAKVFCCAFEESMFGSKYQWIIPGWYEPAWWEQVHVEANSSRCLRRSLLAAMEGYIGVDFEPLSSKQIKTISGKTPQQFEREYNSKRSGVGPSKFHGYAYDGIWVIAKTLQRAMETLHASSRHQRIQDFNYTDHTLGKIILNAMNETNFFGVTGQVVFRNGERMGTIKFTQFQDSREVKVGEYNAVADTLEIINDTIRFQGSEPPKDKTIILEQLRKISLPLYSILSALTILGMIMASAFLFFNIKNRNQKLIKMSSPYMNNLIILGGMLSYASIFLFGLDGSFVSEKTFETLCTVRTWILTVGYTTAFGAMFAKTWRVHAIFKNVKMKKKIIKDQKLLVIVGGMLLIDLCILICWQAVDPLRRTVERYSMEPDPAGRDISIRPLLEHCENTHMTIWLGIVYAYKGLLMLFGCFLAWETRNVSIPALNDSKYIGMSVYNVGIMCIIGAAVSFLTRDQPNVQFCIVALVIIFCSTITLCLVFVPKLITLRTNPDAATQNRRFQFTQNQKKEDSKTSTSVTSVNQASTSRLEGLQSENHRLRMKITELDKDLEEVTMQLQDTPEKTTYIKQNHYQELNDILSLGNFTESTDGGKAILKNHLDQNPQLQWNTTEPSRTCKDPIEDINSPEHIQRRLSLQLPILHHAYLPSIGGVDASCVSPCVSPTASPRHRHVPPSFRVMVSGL
T1 sequence (Q9Z0U4 17-960): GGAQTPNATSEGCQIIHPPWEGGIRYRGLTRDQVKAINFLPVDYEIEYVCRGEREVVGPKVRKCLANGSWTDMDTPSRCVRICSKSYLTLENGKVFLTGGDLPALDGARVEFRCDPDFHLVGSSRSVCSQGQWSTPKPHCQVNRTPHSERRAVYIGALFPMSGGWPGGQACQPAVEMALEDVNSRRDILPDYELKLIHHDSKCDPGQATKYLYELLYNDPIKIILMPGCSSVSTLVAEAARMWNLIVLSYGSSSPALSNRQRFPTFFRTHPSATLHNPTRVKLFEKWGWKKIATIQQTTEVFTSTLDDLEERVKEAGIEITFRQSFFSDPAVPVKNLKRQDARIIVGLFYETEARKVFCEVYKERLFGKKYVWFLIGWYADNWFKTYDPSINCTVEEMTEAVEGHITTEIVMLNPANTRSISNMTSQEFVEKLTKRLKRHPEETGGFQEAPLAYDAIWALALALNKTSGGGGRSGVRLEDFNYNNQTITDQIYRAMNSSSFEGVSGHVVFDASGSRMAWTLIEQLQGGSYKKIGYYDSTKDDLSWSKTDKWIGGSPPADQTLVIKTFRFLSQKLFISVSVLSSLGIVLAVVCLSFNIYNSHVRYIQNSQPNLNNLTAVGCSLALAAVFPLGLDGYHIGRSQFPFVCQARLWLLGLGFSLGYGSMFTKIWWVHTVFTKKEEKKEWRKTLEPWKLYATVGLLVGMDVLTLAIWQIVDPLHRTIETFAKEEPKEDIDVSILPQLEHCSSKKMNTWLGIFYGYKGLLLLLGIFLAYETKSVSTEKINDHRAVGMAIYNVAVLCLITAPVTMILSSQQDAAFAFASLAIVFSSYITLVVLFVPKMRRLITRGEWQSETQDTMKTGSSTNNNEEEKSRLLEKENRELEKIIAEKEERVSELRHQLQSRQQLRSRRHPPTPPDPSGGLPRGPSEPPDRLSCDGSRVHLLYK

[6] = test system: GABA receptors; format: binding, rat
[7] = test system: Adenosine, Non-selective; format: binding
[8] = test system: Adrenergic, Alpha 1, Non-selective; format: binding
[9] = test system: Adrenergic, Alpha 2, Non-selective; format: binding
[10] = test system: Adrenergic, Beta, Non-selective; format: binding
[11] = test system: Dopamine, Non-selective; format: binding
[12] = test system: GABA, Non-Selective; format: binding
[13] = test system: Melatonin, Non-selective; format: binding
[14] = test system: Opiod, Non-selective; format: binding
[15] = test system: Serotonin, Non-selective; format: binding
[16] = test system: Sigma, Non-selective; format: binding
[17] = test system: Calcium Channel, Type L (Benzothiazepine Site); format: binding
[18] = test system: Calcium Channel, Type L (Dihydropyridine Site); format: binding
[19] = target: Calcium Channel, Type N (Homo sapiens, UniProt Q00975); format: binding
Sequence of Calcium Channel, Type N (Q00975 whole entry, looked up): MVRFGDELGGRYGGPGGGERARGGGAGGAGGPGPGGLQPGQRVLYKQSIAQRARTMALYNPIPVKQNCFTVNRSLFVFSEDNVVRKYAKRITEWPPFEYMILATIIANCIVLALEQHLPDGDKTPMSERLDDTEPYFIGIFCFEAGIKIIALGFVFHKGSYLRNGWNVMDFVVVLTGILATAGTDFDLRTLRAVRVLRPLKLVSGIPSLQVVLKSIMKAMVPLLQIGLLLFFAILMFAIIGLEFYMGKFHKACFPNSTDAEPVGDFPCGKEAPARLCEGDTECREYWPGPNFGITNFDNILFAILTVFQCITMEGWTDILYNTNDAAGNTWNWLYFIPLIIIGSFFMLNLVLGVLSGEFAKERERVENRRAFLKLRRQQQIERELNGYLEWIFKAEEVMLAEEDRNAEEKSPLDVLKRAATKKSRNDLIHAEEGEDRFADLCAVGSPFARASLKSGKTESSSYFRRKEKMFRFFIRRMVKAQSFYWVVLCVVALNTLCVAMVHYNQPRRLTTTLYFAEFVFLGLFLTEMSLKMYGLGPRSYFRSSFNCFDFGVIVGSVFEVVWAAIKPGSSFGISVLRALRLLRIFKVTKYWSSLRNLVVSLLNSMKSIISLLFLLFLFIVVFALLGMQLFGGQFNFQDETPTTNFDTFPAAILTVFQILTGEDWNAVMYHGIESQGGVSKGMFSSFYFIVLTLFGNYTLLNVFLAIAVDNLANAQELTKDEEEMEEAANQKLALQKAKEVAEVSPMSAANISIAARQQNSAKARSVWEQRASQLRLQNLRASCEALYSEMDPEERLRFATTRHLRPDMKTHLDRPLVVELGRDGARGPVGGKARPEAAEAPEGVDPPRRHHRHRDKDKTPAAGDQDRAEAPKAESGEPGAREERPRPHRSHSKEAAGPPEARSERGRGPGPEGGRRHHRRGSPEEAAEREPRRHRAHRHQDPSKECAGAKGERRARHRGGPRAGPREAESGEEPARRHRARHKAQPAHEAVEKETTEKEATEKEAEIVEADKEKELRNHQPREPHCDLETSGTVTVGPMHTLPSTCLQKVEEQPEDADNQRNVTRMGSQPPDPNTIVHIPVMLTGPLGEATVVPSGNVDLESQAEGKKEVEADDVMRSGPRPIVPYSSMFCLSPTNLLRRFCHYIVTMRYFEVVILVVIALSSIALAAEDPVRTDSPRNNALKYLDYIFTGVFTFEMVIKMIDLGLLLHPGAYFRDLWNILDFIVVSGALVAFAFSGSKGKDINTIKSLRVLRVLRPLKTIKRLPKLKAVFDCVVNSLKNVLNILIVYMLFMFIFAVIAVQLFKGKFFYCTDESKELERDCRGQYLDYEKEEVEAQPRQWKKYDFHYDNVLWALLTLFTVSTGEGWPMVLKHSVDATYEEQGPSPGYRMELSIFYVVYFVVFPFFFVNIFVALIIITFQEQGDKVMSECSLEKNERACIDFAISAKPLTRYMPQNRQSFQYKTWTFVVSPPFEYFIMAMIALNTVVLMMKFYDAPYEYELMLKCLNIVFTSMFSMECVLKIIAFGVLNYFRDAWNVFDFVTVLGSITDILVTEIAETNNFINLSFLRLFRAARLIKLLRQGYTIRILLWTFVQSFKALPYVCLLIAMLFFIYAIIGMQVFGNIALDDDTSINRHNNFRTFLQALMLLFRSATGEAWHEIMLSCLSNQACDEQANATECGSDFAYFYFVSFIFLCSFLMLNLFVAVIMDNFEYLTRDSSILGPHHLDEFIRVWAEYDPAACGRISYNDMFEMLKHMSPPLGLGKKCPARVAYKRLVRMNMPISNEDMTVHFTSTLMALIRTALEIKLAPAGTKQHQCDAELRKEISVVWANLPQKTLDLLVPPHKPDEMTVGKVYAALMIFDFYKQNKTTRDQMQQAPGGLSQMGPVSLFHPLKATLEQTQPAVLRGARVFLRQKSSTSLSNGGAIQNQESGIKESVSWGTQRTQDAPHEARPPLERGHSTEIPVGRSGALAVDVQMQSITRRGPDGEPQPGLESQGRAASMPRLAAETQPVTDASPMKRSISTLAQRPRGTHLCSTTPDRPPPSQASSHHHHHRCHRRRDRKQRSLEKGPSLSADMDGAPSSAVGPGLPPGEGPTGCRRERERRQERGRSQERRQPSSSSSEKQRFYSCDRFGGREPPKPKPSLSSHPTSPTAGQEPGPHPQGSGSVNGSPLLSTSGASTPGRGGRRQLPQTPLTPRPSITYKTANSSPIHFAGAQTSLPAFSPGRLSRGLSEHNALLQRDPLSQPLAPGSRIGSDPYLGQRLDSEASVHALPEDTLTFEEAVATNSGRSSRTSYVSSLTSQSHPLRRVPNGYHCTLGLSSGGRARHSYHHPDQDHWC

[20] = test system: GABA, Chloride, TBOB Site; format: binding
[21] = target: Potassium Channel, ATP-Sensitive (Rattus norvegicus, UniProt Q09429); format: binding
[22] = test system: Sodium, Site 2; format: binding
[23] = target: Potassium Channel, I[Kr] (hERG) (hr) (Homo sapiens, UniProt Q12809)
[24] = test system: GABAA receptors; settings: cited from earlier work
[25] = target: T1, GABAB receptors; settings: cited from earlier work
[26] = test system: GABA receptors; settings: cited from earlier work
[27] = target: T2, GHB receptors (GHB sites) (Rattus norvegicus, UniProt P11275); settings: cited from earlier work
T2 sequence (P11275 whole entry): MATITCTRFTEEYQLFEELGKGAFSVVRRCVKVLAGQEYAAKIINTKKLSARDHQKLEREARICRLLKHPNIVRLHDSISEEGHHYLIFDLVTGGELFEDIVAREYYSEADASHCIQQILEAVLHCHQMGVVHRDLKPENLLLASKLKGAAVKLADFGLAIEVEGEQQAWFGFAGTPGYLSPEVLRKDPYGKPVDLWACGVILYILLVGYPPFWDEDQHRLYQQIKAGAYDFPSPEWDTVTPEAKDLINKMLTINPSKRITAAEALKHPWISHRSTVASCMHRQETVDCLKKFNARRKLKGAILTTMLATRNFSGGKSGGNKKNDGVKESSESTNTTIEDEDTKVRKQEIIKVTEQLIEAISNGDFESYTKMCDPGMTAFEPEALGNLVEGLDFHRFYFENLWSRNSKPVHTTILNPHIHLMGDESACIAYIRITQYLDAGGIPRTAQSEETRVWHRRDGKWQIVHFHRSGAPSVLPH

[28] = target: T2, GHB receptors (GHB sites); format: binding

## CCOC(=O)C1=C(C)NC(C)=C(C(=O)OC)C1c1cccc([N+](=O)[O-])c1 (stereo not drawn) [[3H]Nitrendipine]
[1]
  Kd: 0.2 nM

## CN1[C@@H]2CC[C@H]1C[C@@H](OC(=O)C(CO)c1ccccc1)C2 (stereo partly drawn) [Atropine sulfate, reference compound]
[2]; read-out: Ki (M) Ref. Cpd.
  Ki: 1.26e-10 M
[3]; read-out: Ki (M) Ref. Cpd.
  Ki: 5.8e-10 M

## O=C(O)Cc1cccc(OCCc2ccccc2)c1 [Compound 10, phenethyl ether of 3-hydroxyphenylacetic acid]
[4]
  Percent displacement of [3H]GABA at 1 Mm, GABAA: 15.1 ± 7.5%
[5]
  Percent displacement of [3H]GABA at 1 Mm, GABAB: −1.2 ± 7.3%
[6]
  affinity at GABA receptors / displacement of [3H]GABA compared with 3-hydroxyphenylacetic acid: decreased affinity
[7]
  Activity: No (key: No: Activity = greater than or equal to 50% Inhibition of binding)
  Percent Inhibition (Average; N = 2): −3.45%
[8]
  Activity: No (key: No: Activity = greater than or equal to 50% Inhibition of binding)
  Percent Inhibition (Average; N = 2): −10.77%
[9]
  Activity: No (key: No: Activity = greater than or equal to 50% Inhibition of binding)
  Percent Inhibition (Average; N = 2): 0.21%
[10]
  Activity: No (key: No: Activity = greater than or equal to 50% Inhibition of binding)
  Percent Inhibition (Average; N = 2): 43.67%
[11]
  Activity: No (key: No: Activity = greater than or equal to 50% Inhibition of binding)
  Percent Inhibition (Average; N = 2): 14.51%
[12]
  Activity: No (key: No: Activity = greater than or equal to 50% Inhibition of binding)
  Percent Inhibition (Average; N = 2): 10.28%
[13]
  Activity: No (key: No: Activity = greater than or equal to 50% Inhibition of binding)
  Percent Inhibition (Average; N = 2): 12.69%
[2]
  Activity: No (key: No: Activity = greater than or equal to 50% Inhibition of binding)
  Percent Inhibition (Average; N = 2): 6.98%
[3]
  Activity: No (key: No: Activity = greater than or equal to 50% Inhibition of binding)
  Percent Inhibition (Average; N = 2): −0.77%
[14]
  Activity: No (key: No: Activity = greater than or equal to 50% Inhibition of binding)
  Percent Inhibition (Average; N = 2): 0.09%
[15]
  Activity: No (key: No: Activity = greater than or equal to 50% Inhibition of binding)
  Percent Inhibition (Average; N = 2): −1.83%
[16]
  Activity: No (key: No: Activity = greater than or equal to 50% Inhibition of binding)
  Percent Inhibition (Average; N = 2): 4.30%
[17]
  Activity: No (key: No: Activity = greater than or equal to 50% Inhibition of binding)
  Percent Inhibition (Average; N = 2): 9.41%
[18]
  Activity: No (key: No: Activity = greater than or equal to 50% Inhibition of binding)
  Percent Inhibition (Average; N = 2): 14.52%
[19]
  Activity: No (key: No: Activity = greater than or equal to 50% Inhibition of binding)
  Percent Inhibition (Average; N = 2): −2.31%
[20]
  Activity: No (key: No: Activity = greater than or equal to 50% Inhibition of binding)
  Percent Inhibition (Average; N = 2): −15.01%
[21]
  Activity: No (key: No: Activity = greater than or equal to 50% Inhibition of binding)
[22]
  Activity: No (key: No: Activity = greater than or equal to 50% Inhibition of binding)
  Percent Inhibition (Average; N = 2): 10.18%
[23]
  Activity: No (key: No: Activity = greater than or equal to 50% Inhibition of binding)
[23]; human
  Percent Inhibition (Average; N = 2): −11.94%

## O=C(O)CCCO [Compound 1, Gamma-hydroxybutyric acid]
[24]
  Percent displacement of [3H]GABA at 1 Mm, GABAA: 35.5 ± 3.7%
[25]
  Percent displacement of [3H]GABA at 1 Mm, GABAB: 41.1 ± 3.1%
[26]
  affinity for GABA receptors: weak affinity

## O=C(O)Cc1cccc(Oc2ccccc2)c1 [Compound 12, phenyl ether of 3-hydroxyphenylacetic acid]
[4]
  Percent displacement of [3H]GABA at 1 Mm, GABAA: 2.7 ± 0.5%
[5]
  Percent displacement of [3H]GABA at 1 Mm, GABAB: −5.5 ± 1.2%
[6]
  affinity at GABA receptors / displacement of [3H]GABA compared with 3-hydroxyphenylacetic acid: decreased affinity

## O=C(O)CCCOc1ccccc1 [Compound 8, reference compound]
[4]
  Percent displacement of [3H]GABA at 1 Mm, GABAA: 6.3 ± 1.7%
[5]
  Percent displacement of [3H]GABA at 1 Mm, GABAB: 6.5 ± 1.0%

## O=C(O)Cc1cccc(O)c1 [Compound 7, 3-hydroxyphenylacetic acid]
[24]
  Percent displacement of [3H]GABA at 1 Mm, GABAA: 44.2 ± 2.0%
[25]
  Percent displacement of [3H]GABA at 1 Mm, GABAB: 14.0 ± 4.0%
[26]
  affinity for GABA receptors: weak affinity

## O=C(O)Cc1cccc(O)c1 [3-hydroxyphenylacetic acid]
[27]
  affinity at GHB receptors compared with GHB: greater affinity than GHB
[24]
  Percent displacement of [3H]GABA at 1 Mm, GABAA: 44%

## O=C(O)Cc1cccc(OCc2ccccc2)c1 [Compound 11, benzyl ether of 3-hydroxyphenylacetic acid]
[28]
  fold lower affinity for GHB receptors than 3-hydroxyphenylacetic acid: 4 fold
[4]
  Percent displacement of [3H]GABA at 1 Mm, GABAA: 11.0 ± 6.2%
[5]
  Percent displacement of [3H]GABA at 1 Mm, GABAB: −4.7 ± 4.7%
[6]
  affinity at GABA receptors / displacement of [3H]GABA compared with 3-hydroxyphenylacetic acid: lower extent

## CCN1C[C@]2(COC)[C@H](O)C[C@H](OC)[C@@]34[C@@H]5C[C@@]6(O)[C@H](OC(=O)c7ccccc7)[C@@H]5[C@@](OC(C)=O)([C@@H]([C@H](OC)[C@H]23)[C@@H]14)[C@@H](O)[C@@H]6OC [Aconitine, reference compound]
[22]; read-out: Ki (M) Ref. Cpd.
  Ki: 6.67e-07 M

## C=CCc1ccccc1OCC(O)CNC(C)C (stereo not drawn) [Alprenolol HCl, reference compound]
[10]; read-out: Ki (M) Ref. Cpd.
  Ki: 3.33e-09 M
